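A five-concentration, 48-hour dose response in 96-well plates underlies each endpoint, interpolated linearly between surrounding concentrations. GI50 = concentration required for 50% inhibition of growth.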 The source made the active and inactive calls. No stated cut-off is given here; in the data, active = GI50 up to about 1.1 µM and inactive = higher.
Columns and labels:
Assay in all cases: NCI tumour cell line growth inhibition, 48 h
SNB-19 = test system: SNB-19
DU-145 = test system: DU-145
HCT-15 = test system: HCT-15
KM12 = test system: KM12
MDA-MB-231 = test system: MDA-MB-231
NCI-H226 = test system: NCI-H226
CCRF-CEM = test system: CCRF-CEM
MCF7 = test system: MCF7
OVCAR-8 = test system: OVCAR-8
EKVX = test system: EKVX
OVCAR-5 = test system: OVCAR-5
RXF 393 = test system: RXF 393
TK-10 = test system: TK-10
PC-3 = test system: PC-3
SN12C = test system: SN12C
COLO 205 = test system: COLO 205
NCI-H23 = test system: NCI-H23
U-251 = test system: U-251
NCI/ADR-RES = test system: NCI/ADR-RES

## CC(=O)NC(=N/N=C1/C(=O)Nc2ccc(C)cc21)NC(C)=O
SNB-19
  GI50: > 100 µM (inactive)
DU-145
  GI50: > 100 µM (inactive)
HCT-15
  GI50: > 100 µM
KM12
  GI50: > 100 µM (inactive)
MDA-MB-231
  GI50: > 100 µM (inactive)
NCI-H226
  GI50: 98.2 µM (inactive)
CCRF-CEM
  GI50: > 100 µM (inactive)
MCF7
  GI50: > 100 µM (inactive)
OVCAR-8
  GI50: > 100 µM (inactive)
EKVX
  GI50: > 100 µM (inactive)
OVCAR-5
  GI50: > 100 µM (inactive)
RXF 393
  GI50: 68.1 µM (inactive)
TK-10
  GI50: > 100 µM (inactive)
PC-3
  GI50: > 100 µM (inactive)
SN12C
  GI50: > 100 µM (inactive)
COLO 205
  GI50: > 100 µM (inactive)
NCI-H23
  GI50: > 100 µM (inactive)
U-251
  GI50: > 100 µM (inactive)
NCI/ADR-RES
  GI50: > 100 µM (inactive)

## Cc1cc(=O)oc2cc3oc(N(C)c4ccccc4)nc(=O)c3cc12
SNB-19
  GI50: 67.9 µM (inactive)
DU-145
  GI50: > 100 µM (inactive)
HCT-15
  GI50: > 100 µM
KM12
  GI50: > 100 µM (inactive)
MDA-MB-231
  GI50: > 100 µM (inactive)
NCI-H226
  GI50: > 100 µM (inactive)
CCRF-CEM
  GI50: > 100 µM (inactive)
MCF7
  GI50: > 100 µM (inactive)
OVCAR-8
  GI50: 42.4 µM (inactive)
EKVX
  GI50: > 100 µM (inactive)
OVCAR-5
  GI50: > 100 µM (inactive)
RXF 393
  GI50: > 100 µM (inactive)
TK-10
  GI50: > 100 µM (inactive)
PC-3
  GI50: > 100 µM (inactive)
SN12C
  GI50: > 100 µM (inactive)
COLO 205
  GI50: > 100 µM (inactive)
NCI-H23
  GI50: > 100 µM (inactive)
U-251
  GI50: 56 µM (inactive)
NCI/ADR-RES
  GI50: > 100 µM (inactive)

## O=C1Nc2cc([N+](=O)[O-])ccc2C(=O)N2CCC[C@@H]12
SNB-19
  GI50: > 100 µM (inactive)
DU-145
  GI50: > 100 µM (inactive)
HCT-15
  GI50: > 100 µM
KM12
  GI50: > 100 µM (inactive)
MDA-MB-231
  GI50: > 100 µM (inactive)
NCI-H226
  GI50: > 100 µM (inactive)
CCRF-CEM
  GI50: > 100 µM (inactive)
MCF7
  GI50: > 100 µM (inactive)
OVCAR-8
  GI50: > 100 µM (inactive)
EKVX
  GI50: > 100 µM (inactive)
OVCAR-5
  GI50: > 100 µM (inactive)
RXF 393
  GI50: > 100 µM (inactive)
TK-10
  GI50: > 100 µM (inactive)
PC-3
  GI50: > 100 µM (inactive)
SN12C
  GI50: > 100 µM (inactive)
COLO 205
  GI50: > 100 µM (inactive)
NCI-H23
  GI50: > 100 µM (inactive)
U-251
  GI50: > 100 µM (inactive)
NCI/ADR-RES
  GI50: > 100 µM (inactive)

## COc1ccc(-n2c(SC(CN3CCOCC3)CN3CCCC3=O)nc3ccccc3c2=O)cc1 (configuration not stated)
SNB-19
  GI50: > 100 µM (inactive)
DU-145
  GI50: > 100 µM (inactive)
HCT-15
  GI50: > 100 µM
KM12
  GI50: > 100 µM (inactive)
MDA-MB-231
  GI50: > 100 µM (inactive)
NCI-H226
  GI50: 40.8 µM (inactive)
CCRF-CEM
  GI50: 67.5 µM (inactive)
MCF7
  GI50: > 100 µM (inactive)
OVCAR-8
  GI50: > 100 µM (inactive)
EKVX
  GI50: > 100 µM (inactive)
OVCAR-5
  GI50: > 100 µM (inactive)
RXF 393
  GI50: > 100 µM (inactive)
TK-10
  GI50: 95.1 µM (inactive)
PC-3
  GI50: > 100 µM (inactive)
SN12C
  GI50: > 100 µM (inactive)
COLO 205
  GI50: > 100 µM (inactive)
NCI-H23
  GI50: 96.4 µM (inactive)
U-251
  GI50: > 100 µM (inactive)
NCI/ADR-RES
  GI50: > 100 µM (inactive)

## CCN(CC)CCO/N=C1/C=C2CCC3C(CC[C@@]4(C)C3CC[C@]4(C)O)[C@@]2(C)CC1 (some centres not stated)
SNB-19
  GI50: 11.6 µM (inactive)
DU-145
  GI50: 6.37 µM (inactive)
HCT-15
  GI50: 2.29 µM
KM12
  GI50: 5.43 µM (inactive)
MDA-MB-231
  GI50: 14.1 µM (inactive)
NCI-H226
  GI50: 2.49 µM (inactive)
CCRF-CEM
  GI50: 1.29 µM (inactive)
MCF7
  GI50: 3.95 µM (inactive)
OVCAR-8
  GI50: 5.21 µM (inactive)
EKVX
  GI50: 6.21 µM (inactive)
OVCAR-5
  GI50: 16.5 µM (inactive)
RXF 393
  GI50: 15.5 µM (inactive)
TK-10
  GI50: 15.2 µM (inactive)
PC-3
  GI50: 4.6 µM (inactive)
SN12C
  GI50: 4.15 µM (inactive)
COLO 205
  GI50: 4.16 µM (inactive)
NCI-H23
  GI50: 6.75 µM (inactive)
U-251
  GI50: 3.44 µM (inactive)
NCI/ADR-RES
  GI50: 1.96 µM (inactive)

## O=C(O)CCCNc1ncc2c(n1)-c1ccccc1OC2
SNB-19
  GI50: > 100 µM (inactive)
DU-145
  GI50: > 100 µM (inactive)
HCT-15
  GI50: > 100 µM
KM12
  GI50: > 100 µM (inactive)
MDA-MB-231
  GI50: > 100 µM (inactive)
NCI-H226
  GI50: > 100 µM (inactive)
CCRF-CEM
  GI50: > 100 µM (inactive)
MCF7
  GI50: > 100 µM (inactive)
OVCAR-8
  GI50: > 100 µM (inactive)
EKVX
  GI50: > 100 µM (inactive)
OVCAR-5
  GI50: > 100 µM (inactive)
RXF 393
  GI50: > 100 µM (inactive)
TK-10
  GI50: > 100 µM (inactive)
PC-3
  GI50: > 100 µM (inactive)
SN12C
  GI50: > 100 µM (inactive)
COLO 205
  GI50: > 100 µM (inactive)
NCI-H23
  GI50: 77.4 µM (inactive)
U-251
  GI50: > 100 µM (inactive)
NCI/ADR-RES
  GI50: > 100 µM (inactive)

## C1CCC2C(C1)CCCC2NC1=NCCO1 (configuration not stated)
SNB-19
  GI50: > 100 µM (inactive)
DU-145
  GI50: > 100 µM (inactive)
HCT-15
  GI50: > 100 µM
KM12
  GI50: > 100 µM (inactive)
MDA-MB-231
  GI50: > 100 µM (inactive)
NCI-H226
  GI50: > 100 µM (inactive)
CCRF-CEM
  GI50: > 100 µM (inactive)
MCF7
  GI50: 69.2 µM (inactive)
OVCAR-8
  GI50: > 100 µM (inactive)
EKVX
  GI50: > 100 µM (inactive)
OVCAR-5
  GI50: > 100 µM (inactive)
RXF 393
  GI50: 86.7 µM (inactive)
TK-10
  GI50: > 100 µM (inactive)
PC-3
  GI50: 93.5 µM (inactive)
SN12C
  GI50: > 100 µM (inactive)
COLO 205
  GI50: > 100 µM (inactive)
NCI-H23
  GI50: > 100 µM (inactive)
U-251
  GI50: > 100 µM (inactive)
NCI/ADR-RES
  GI50: > 100 µM (inactive)

## COc1ccc(C2c3cc4c(cc3OC3(OC)COC(=O)C23)OCO4)c(OC)c1 (configuration not stated)
SNB-19
  GI50: 14.2 µM (inactive)
DU-145
  GI50: 31.9 µM (inactive)
HCT-15
  GI50: 5.19 µM
KM12
  GI50: 3.43 µM (inactive)
MDA-MB-231
  GI50: 27.1 µM (inactive)
NCI-H226
  GI50: 25.1 µM (inactive)
CCRF-CEM
  GI50: 4.32 µM (inactive)
MCF7
  GI50: 4.85 µM (inactive)
OVCAR-8
  GI50: 9.84 µM (inactive)
EKVX
  GI50: 16.2 µM (inactive)
OVCAR-5
  GI50: 54.7 µM (inactive)
RXF 393
  GI50: 6.59 µM (inactive)
TK-10
  GI50: 32.6 µM (inactive)
PC-3
  GI50: 17.7 µM (inactive)
SN12C
  GI50: 15.6 µM (inactive)
COLO 205
  GI50: 5.62 µM (inactive)
NCI-H23
  GI50: 29.3 µM (inactive)
U-251
  GI50: 7.35 µM (inactive)
NCI/ADR-RES
  GI50: 3.23 µM (inactive)

Source: ChEMBL document CHEMBL1201862, “PubChem BioAssay data set” (2004)
